Columns and labels:
NTRK2 [1] = target: T1, NTRK2 (Homo sapiens (Human), UniProt Q16620); test: NTRK2 inhibition (IC50); format: biochemical
NTRK1 = NTRK1 (Homo sapiens (Human), UniProt P04629); test: NTRK1 inhibition (IC50); conditions: read-out: NTRK1 IC50
NTRK3 = NTRK3 (Homo sapiens (Human), UniProt Q16288); test: NTRK3 inhibition (IC50); conditions: read-out: NTRK3 IC50
[2] = Metabolic stability in mouse liver microsomes (MLM)
[3] = Metabolic stability in human liver microsomes (HLM)
NTRK2 [4] = target: T1, NTRK2; test: Promega NTRK2 NanoBRET live-cell target engagement; format: cell-based; conditions: live cells
From the text: FIGS. 6A-6B show the live-cell engagement (FIG. 6A) concept and an NTRK2 example (FIG. 6B). FIG. 6A: Depiction of Promega's NanoBRET target engagement system as per their website. The system involves cell-based competitive displacement of a fluorescent NanoBRET tracer bound reversibly to a NanoLuc fusion protein. Test compounds displace the tracer dependent on their affinity for the target and […] the NanoBRET signal. FIG. 6B: Example of the use of Promega's NTRK2 NanoBRET cell-based system. Each NTRK2 compound (Cpd) was assayed in kinase assays and in cells. Multiple NTRK2 compounds enter the cell and are potent nanomolar inhibitors in these assays (% normalized to no Cpd).
As described elsewhere herein, hit compounds, including but not limited to CDD-2262, and its smaller analog, CDD-2330, were synthesized off-DNA and evaluated for NTRK2 activity.

[5] = Brain uptake in mice 24 hours post-administration; format: in vivo, mouse; conditions: mouse, brain, 24 h, read-out: Brain Concentration at 24 h (ng/mg)
endometriotic lesions = test: Endometriosis mouse model, lesion efficacy; format: in vivo; conditions: for endometriotic lesion growth: excised lesions
Protocol: FIGS. 17A-17F depict the robust efficacy of the inhibitory compounds of the present disclosure as NTRK2 inhibitors for inhibition of endometriotic lesion growth in mice utilizing CDD-3132 as an example. FIG. 17A provides a schematic overview of the experiment performed. FIGS. 17B-17C provide photographs showing excised lesions with administration of a control (FIG. 17B) or CDD-3132 (10 mg/kg/day) (FIG. 17C).
(§1) In one aspect, the present disclosure provides exemplary data relating to the administration of NTRK2 inhibitors in a mouse model of endometriosis (FIG. 14). In certain embodiments, the recipient mouse is administered the NTRK2 inhibitor and/or controls on day 14 after intraperitoneal injection of endometrium of the donor mouse. In certain embodiments, the recipient mouse is sacrificed and quantitatively assessed on day 28.

[6] = Endometriosis mouse model, liver and kidney toxicity (organ weight, ALT, AST); format: in vivo; set-up: ALT (Mean ± SD) / AST (Mean ± SD): unit not given here; conditions: for ALT (Mean ± SD) / AST (Mean ± SD): i.p. dose of 10 mg/kg/day for 14 days; for effect on liver and/or kidney weight and/or serum elevation of ALT and AST: 10 mg/kg, mice with endometriotic lesions; for impact on liver and kidney weights: mice treated for 14 days
Protocol: as §1

[7] = 10 mg/kg, compared to vehicle control

T1 sequence (Q16620 32-822): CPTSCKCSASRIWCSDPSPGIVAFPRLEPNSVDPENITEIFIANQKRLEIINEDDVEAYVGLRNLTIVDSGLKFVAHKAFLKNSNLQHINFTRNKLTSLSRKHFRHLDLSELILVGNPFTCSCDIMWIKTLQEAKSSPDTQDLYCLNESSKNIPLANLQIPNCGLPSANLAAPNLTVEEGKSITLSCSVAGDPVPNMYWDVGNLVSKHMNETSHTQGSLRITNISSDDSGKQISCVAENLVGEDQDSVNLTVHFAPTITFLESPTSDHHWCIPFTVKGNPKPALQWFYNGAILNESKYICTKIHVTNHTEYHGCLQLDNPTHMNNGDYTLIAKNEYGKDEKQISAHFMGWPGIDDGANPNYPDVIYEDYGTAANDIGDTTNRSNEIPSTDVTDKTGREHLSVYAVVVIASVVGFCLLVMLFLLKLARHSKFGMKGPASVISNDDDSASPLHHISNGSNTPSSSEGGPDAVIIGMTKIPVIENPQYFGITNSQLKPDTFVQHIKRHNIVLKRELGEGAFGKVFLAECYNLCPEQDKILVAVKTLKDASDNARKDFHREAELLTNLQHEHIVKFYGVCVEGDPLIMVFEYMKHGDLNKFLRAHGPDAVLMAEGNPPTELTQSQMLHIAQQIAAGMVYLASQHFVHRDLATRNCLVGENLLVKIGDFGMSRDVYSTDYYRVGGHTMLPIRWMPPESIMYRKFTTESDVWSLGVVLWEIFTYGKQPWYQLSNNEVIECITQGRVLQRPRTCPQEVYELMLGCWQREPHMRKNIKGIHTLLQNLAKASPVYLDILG
Sequence of NTRK1 (P04629 33-796): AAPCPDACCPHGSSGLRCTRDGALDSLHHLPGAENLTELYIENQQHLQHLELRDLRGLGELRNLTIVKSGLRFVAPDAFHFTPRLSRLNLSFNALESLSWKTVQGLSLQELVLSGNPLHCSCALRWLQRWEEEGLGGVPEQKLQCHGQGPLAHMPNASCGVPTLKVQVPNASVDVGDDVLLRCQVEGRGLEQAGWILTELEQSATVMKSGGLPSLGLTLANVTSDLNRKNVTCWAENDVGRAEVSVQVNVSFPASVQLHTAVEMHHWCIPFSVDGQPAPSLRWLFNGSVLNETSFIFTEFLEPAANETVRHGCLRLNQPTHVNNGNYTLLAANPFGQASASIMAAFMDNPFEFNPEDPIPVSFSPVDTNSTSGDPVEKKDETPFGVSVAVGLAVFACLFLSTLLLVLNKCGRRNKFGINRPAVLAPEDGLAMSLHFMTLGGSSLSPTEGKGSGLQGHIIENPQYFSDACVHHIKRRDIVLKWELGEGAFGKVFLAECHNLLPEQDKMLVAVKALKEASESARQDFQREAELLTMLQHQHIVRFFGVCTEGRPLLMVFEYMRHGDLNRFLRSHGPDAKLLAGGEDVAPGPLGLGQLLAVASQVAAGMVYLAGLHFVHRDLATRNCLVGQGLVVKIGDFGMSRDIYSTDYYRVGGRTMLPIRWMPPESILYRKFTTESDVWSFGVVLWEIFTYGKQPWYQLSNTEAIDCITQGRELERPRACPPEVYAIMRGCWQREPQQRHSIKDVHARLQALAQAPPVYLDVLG
Sequence of NTRK3 (Q16288 32-839): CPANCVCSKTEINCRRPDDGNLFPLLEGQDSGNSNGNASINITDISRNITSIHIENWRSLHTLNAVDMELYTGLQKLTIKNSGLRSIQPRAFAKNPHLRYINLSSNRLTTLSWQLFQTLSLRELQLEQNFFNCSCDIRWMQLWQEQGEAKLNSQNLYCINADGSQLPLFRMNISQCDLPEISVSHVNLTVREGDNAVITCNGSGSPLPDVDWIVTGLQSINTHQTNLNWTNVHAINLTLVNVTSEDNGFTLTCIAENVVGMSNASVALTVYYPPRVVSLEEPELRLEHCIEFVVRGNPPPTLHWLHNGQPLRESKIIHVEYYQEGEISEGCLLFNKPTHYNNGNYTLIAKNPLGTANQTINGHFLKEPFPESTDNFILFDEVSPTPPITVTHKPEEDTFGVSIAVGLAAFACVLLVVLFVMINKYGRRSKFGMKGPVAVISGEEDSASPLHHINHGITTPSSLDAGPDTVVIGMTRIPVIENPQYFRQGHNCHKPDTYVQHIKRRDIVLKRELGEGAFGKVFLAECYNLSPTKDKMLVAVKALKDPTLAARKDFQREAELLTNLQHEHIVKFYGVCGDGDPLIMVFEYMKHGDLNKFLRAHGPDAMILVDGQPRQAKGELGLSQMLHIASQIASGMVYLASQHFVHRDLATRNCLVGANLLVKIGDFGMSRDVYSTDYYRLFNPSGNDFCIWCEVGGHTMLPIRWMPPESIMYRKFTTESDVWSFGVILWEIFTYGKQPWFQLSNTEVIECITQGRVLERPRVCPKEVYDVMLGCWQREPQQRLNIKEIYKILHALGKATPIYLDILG

IC50 (NTRK2 [1]) [nM]	IC50 (NTRK1) [nM]	IC50 (NTRK3) [nM]	half-life [2] [h]	half-life [3] [h]	SMILES	other results
963	11000	2320	5.63	4.5	CN(Cc1ccn2ncc(C(N)=O)c2c1)C(=O)CNc1ccc(OC(F)(F)F)cc1 [CDD-3258, 5-((N-methyl-2-((4-(trifluoromethoxy)phenyl)amino)acetamido)methyl)pyrazolo[1,5-a]pyridine-3-carboxamide]	–
3.7	31	–	0.337	0.718	CC(C)N(Cc1ccn2nccc2c1)C(=O)Nc1ccc(OC(F)(F)F)cc1 [CDD-2299, 1-isopropyl-1-(pyrazolo[1,5-a]pyridin-5-ylmethyl)-3-(4-(trifluoromethoxy)phenyl)urea]	cell penetration and effect in NanoBRET assays (NTRK2 [4]): able to penetrate cell membranes to induce an effect
31.5	357	54	0.317	0.75	C=C(C)c1ccc(OCC(=O)N(Cc2ccn3ncc(C(N)=O)c3c2)C(C)C)cc1 [CDD-3255, 5-((N-isopropyl-2-(4-(prop-1-en-2-yl)phenoxy)acetamido)methyl)pyrazolo[1,5-a]pyridine-3-carboxamide]	–
–	–	–	3.37	8.37	CC(C)(CO)n1cc(C(=O)c2cncc(NC(=O)Cc3ccc(Cl)cn3)c2)c2cnc(N)nc21 [PF-06273340, N-[5-[[2-Amino-7-(2-hydroxy-1,1-dimethylethyl)-7H-pyrrolo[2,3-d]pyrimidin-5-yl]carbonyl]-3-pyridinyl]-5-chloro-2-pyridineacetamide, reference compound]	concentration at 24 h [5]: 80 ng/g; number, volume and mass of lesions (endometriotic lesions; [7]): reduction of lesions, volume of lesions, and mass of lesions; endometriotic lesion growth (endometriotic lesions; 10 mg/kg): inhibiting endometriotic lesion growth; ALT (Mean ± SD) [6]: 15.1 ± 1.6; AST (Mean ± SD) [6]: 25.3 ± 7.1
3.6	3.8	6.6	4.83	1.6	CC(C)N(Cc1ccn2ncc(C(N)=O)c2c1)C(=S)Nc1ccc(OC(F)(F)F)cc1 [CDD-3119, 5-((1-isopropyl-3-(4-(trifluoromethoxy)phenyl)thioureido)methyl)pyrazolo[1,5-a]pyridine-3-carboxamide]	concentration at 24 h [5]: 140 ng/g; number, volume and mass of lesions (endometriotic lesions; [7]): reduction of lesions, volume of lesions, and mass of lesions; endometriotic lesion growth (endometriotic lesions; 10 mg/kg): inhibiting endometriotic lesion growth; effect on liver and/or kidney weight and/or serum elevation of ALT and AST [6]: little to no effect; ALT (Mean ± SD) [6]: 21.3 ± 4.9; AST (Mean ± SD) [6]: 53.2 ± 18.5; impact on liver and kidney weights [6]: no significant impact
517	4560	1370	11.8	11.5	CN(Cc1ccn2ncc(C(N)=O)c2c1)C(=O)COc1ccc(OC(F)(F)F)cc1 [CDD-3132, 5-((N-methyl-2-(4-(trifluoromethoxy)phenoxy)acetamido)methyl)pyrazolo[1,5-a]pyridine-3-carboxamide]	number, volume and mass of lesions (endometriotic lesions; [7]): reduction of lesions, volume of lesions, and mass of lesions; size of endometriotic lesions (endometriotic lesions; [7]): decreased size of endometriotic lesions; endometriotic lesion growth (endometriotic lesions; 10 mg/kg): inhibiting endometriotic lesion growth; proliferation, vascularization, macrophage infiltration, inflammation within endometriotic lesions (endometriotic lesions; 10 mg/kg, H&E staining, confocal microscopy): reduction of proliferation, vascularization, macrophage infiltration, and/or inflammation; effect on liver and/or kidney weight and/or serum elevation of ALT and AST [6]: little to no effect; ALT (Mean ± SD) [6]: 20.5 ± 12.6; AST (Mean ± SD) [6]: 33.5 ± 20.6; impact on liver and kidney weights [6]: no significant impact
1.7	18.1	2.9	2.02	6.47	CC(C)N(Cc1ccn2ncc(C(=N)NO)c2c1)C(=O)Nc1ccc(OC(F)(F)F)cc1 [CDD-2744, N-hydroxy-5-((1-isopropyl-3-(4-(trifluoromethoxy)phenyl)ureido)methyl)pyrazolo[1,5-a]pyridine-3-carboximidamide]	–
132	749	153	5.85	3.95	NC(=O)c1cnn2ccc(CNC(=S)Nc3ccc(OC(F)(F)F)cc3)cc12 [CDD-3131, 5-((3-(4-(trifluoromethoxy)phenyl)thioureido)methyl)pyrazolo[1,5-a]pyridine-3-carboxamide]	–
4.5	12.4	5.3	0.0833	0.192	O=C(Nc1ccccc1C(F)(F)F)N(Cc1ccn2nccc2c1)C1CCC1 [CDD-2274, 1-cyclobutyl-1-(pyrazolo[1,5-a]pyridin-5-ylmethyl)-3-(2-(trifluoromethyl)phenyl)urea]	–
10600	58200	10900	> 3.33	> 3.33	CC(=O)c1ccc(OCC(=O)N(C)Cc2ccn3ncc(C(N)=O)c3c2)cc1 [CDD-3257, 5-((2-(4-acetylphenoxy)-N-methylacetamido)methyl)pyrazolo[1,5-a]pyridine-3-carboxamide]	–
223	1870	312	> 3.33	> 3.33	CC(=O)c1ccc(OCC(=O)N(Cc2ccn3ncc(C(N)=O)c3c2)C(C)C)cc1 [CDD-3256, 5-((2-(4-acetylphenoxy)-N-isopropylacetamido)methyl)pyrazolo[1,5-a]pyridine-3-carboxamide]	–
19	151	21.5	11.5	6.37	CN(Cc1ccn2ncc(C(N)=O)c2c1)C(=S)Nc1ccc(OC(F)(F)F)cc1 [CDD-3118, 5-((1-methyl-3-(4-(trifluoromethoxy)phenyl)thioureido)methyl)pyrazolo[1,5-a]pyridine-3-carboxamide]	–
–	–	–	–	–	O=C(Nc1ccccc1C(=O)NC1CCCCNC1=O)c1cc2ccccc2s1 (stereo not drawn) [ANA-12, reference compound]	endometriotic lesion regression (endometriotic lesions; mice): endometriotic lesion regression
5.8	11.7	4.4	0.683	2.13	CC(C)N(Cc1ccn2ncc(C#N)c2c1)C(=O)Nc1ccc(OC(F)(F)F)cc1 [CDD-2741, 1-((3-cyanopyrazolo[1,5-a]pyridin-5-yl)methyl)-1-isopropyl-3-(4-(trifluoromethoxy)phenyl)urea]	–
6.7	61	15.3	0.102	1.78	CC(C)N(Cc1ccn2ncc(C(N)=O)c2c1)C(=O)COc1ccc(C(C)(C)C)cc1 [CDD-3184, 5-((2-(4-(tert-butyl)phenoxy)-N-isopropylacetamido)methyl)pyrazolo[1,5-a]pyridine-3-carboxamide]	–
0.52	7.5	1.51	3.73	6.35	NC(=O)c1cnn2ccc(CN(C(=O)Nc3ccc(OC(F)(F)F)cc3)C3CC3)cc12 [CDD-2738, 5-((1-cyclopropyl-3-(4-(trifluoromethoxy)phenyl)ureido)methyl)pyrazolo[1,5-a]pyridine-3-carboxamide]	concentration at 24 h [5]: 2300 ng/g
4.3	16.6	10.1	3.08	10	CC(C)N(Cc1ccn2ncc(C(N)=O)c2c1)C(=O)COc1ccc(OC(F)(F)F)cc1 [CDD-3133, 5-((N-isopropyl-2-(4-(trifluoromethoxy)phenoxy)acetamido)methyl)pyrazolo[1,5-a]pyridine-3-carboxamide]	–
–	–	–	–	–	CC(C)(CO)n1cc(C(=O)c2cncc(NC(=O)Cc3ccc(Cl)cn3)c2)c2cnc(N)nc21 [PF-0672, reference compound]	effect on liver and/or kidney weight and/or serum elevation of ALT and AST [6]: little to no effect
59	277	142	2.38	3.22	CC(C)N(Cc1ccn2ncc(C(N)=O)c2c1)C(=O)CNc1ccc(OC(F)(F)F)cc1 [CDD-3254, 5-((N-isopropyl-2-((4-(trifluoromethoxy)phenyl)amino)acetamido)methyl)pyrazolo[1,5-a]pyridine-3-carboxamide]	–
